In ChEMBL document CHEMBL1201862, “PubChem BioAssay data set” (2004):
Active and inactive are the calls of the source.

Assays:
Cytochrome P450 3A4 = Cytochrome P450 3A4 (Homo sapiens, UniProt P08684);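 note: CYP3A4 tested as one member of a cytochrome P450 panel screen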
Cytochrome P450 2C19 = Cytochrome P450 2C19 (Homo sapiens, UniProt P33261); assay: Cytochrome panel assay with activity outcomes. Panel member name: p450-cyp2c19 Compounds with AC50 equal or less than 10 uM are considered active; format: functional; conditions: read-out: AC50
Cytochrome P450 2C19, sequence (P33261 whole entry): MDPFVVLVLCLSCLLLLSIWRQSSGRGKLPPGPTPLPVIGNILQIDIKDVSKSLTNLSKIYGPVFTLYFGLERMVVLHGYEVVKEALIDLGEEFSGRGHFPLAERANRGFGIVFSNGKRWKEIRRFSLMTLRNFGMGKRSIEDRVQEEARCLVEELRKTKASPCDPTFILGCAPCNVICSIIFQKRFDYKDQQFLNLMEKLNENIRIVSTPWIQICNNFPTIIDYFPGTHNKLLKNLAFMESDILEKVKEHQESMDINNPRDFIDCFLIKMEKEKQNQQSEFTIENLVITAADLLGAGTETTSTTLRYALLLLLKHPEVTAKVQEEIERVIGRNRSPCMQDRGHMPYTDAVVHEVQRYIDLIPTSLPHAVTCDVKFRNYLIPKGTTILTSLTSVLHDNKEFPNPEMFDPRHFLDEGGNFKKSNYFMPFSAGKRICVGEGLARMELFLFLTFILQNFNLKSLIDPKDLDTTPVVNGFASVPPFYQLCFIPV

[1] = inhibitors of Vif binding to APOBEC3G peptide, primary screen, biochemical, TR-FRET, GST-Vif 1-94, biotin-A3G peptide, dose response retest (AID 1117319); format: functional;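 note: TR-FRET signal of purified GST-Vif binding a biotinylated A3G peptide; inhibitors lower the FRET signal by blocking Vif and A3G binding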
Cytochrome P450 1A2 = target: T1, Cytochrome P450 1A2 (Homo sapiens, UniProt P05177);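 note: PubChem cytochrome P450 panel assay, CYP1A2 panel member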
T1 sequence (P05177 whole entry): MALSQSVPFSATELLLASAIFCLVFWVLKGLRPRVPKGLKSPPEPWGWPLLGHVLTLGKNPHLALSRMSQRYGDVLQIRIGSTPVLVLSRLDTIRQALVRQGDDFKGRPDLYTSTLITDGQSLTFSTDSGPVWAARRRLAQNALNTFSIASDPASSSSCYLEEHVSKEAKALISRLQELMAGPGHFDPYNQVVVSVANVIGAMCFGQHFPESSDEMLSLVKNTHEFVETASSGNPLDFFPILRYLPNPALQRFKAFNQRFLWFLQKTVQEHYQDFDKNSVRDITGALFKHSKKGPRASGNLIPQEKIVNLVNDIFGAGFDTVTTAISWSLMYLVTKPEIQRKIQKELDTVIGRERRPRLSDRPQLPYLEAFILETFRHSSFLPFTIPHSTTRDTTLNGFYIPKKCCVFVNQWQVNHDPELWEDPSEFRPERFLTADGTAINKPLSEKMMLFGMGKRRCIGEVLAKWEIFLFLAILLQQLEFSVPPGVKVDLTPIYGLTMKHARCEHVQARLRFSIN

[2] = target: Protein-tyrosine kinase 2-beta (Homo sapiens, UniProt Q14289);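 note: potency of inhibitors of PYK2 kinase phosphorylation of poly-GT substrate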
Protein-tyrosine kinase 2-beta, sequence (Q14289 whole entry): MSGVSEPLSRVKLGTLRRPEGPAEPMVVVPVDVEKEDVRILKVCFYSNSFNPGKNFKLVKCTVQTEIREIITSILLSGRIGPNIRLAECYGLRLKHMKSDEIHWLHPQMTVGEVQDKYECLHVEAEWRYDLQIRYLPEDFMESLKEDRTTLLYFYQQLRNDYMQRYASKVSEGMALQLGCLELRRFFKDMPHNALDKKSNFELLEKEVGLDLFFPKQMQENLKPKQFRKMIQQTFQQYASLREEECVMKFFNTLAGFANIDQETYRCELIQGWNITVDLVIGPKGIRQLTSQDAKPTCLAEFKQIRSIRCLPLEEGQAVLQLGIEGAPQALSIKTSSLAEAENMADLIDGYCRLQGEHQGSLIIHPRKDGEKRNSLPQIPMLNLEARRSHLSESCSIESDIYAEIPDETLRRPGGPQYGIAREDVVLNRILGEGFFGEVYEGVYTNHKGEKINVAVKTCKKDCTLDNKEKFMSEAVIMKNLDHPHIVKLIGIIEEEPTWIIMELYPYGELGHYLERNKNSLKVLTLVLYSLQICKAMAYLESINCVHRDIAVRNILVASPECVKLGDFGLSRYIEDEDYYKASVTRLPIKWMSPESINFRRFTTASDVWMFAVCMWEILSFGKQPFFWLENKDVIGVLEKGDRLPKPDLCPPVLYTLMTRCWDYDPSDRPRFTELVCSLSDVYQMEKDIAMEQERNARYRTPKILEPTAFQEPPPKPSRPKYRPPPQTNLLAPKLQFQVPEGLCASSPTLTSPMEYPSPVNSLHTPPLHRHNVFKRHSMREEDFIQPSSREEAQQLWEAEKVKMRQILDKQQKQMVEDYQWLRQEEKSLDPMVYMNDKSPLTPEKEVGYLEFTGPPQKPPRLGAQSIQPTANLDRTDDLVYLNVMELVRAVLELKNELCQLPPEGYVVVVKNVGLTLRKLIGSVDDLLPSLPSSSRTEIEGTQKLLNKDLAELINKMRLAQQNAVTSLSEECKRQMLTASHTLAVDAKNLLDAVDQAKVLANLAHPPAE

[3] = target: T2, Replicative DNA helicase DnaB (Mycobacterium tuberculosis, UniProt P9WMR3); assay: DnaB intein splicing inhibitors, dose response, biochemical, cell-free fluorescence (AID 449749); format: functional
T2 sequence (P9WMR3 whole entry): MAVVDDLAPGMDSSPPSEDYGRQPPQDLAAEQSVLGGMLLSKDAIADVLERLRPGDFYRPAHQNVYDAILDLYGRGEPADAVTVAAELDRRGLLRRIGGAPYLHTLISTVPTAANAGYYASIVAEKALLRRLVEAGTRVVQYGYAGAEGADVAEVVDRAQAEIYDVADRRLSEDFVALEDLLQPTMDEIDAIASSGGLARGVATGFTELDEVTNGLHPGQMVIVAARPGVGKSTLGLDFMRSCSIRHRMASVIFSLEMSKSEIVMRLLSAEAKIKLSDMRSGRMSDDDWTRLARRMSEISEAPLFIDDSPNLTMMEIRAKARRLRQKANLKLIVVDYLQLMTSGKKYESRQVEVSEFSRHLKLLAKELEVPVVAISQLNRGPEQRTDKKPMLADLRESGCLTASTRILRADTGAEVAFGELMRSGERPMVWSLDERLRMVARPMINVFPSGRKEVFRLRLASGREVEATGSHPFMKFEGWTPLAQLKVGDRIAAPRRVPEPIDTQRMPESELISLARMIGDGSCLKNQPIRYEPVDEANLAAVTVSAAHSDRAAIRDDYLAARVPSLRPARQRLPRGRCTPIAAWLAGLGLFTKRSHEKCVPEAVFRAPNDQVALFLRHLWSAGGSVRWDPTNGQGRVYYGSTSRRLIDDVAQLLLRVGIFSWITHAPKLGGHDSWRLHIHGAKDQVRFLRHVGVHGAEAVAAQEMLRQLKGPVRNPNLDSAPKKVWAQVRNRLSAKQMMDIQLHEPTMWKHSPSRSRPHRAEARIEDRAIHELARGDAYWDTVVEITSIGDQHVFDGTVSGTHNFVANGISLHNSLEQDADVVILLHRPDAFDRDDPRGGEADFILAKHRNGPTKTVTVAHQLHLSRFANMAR

Vero [4] = assay: host cell cytotoxicity of antiviral hits, dose response, cytotoxicity control for West Nile virus antiviral project, secondary assay (AID 1650); format: functional; conditions: Chlorocebus sabaeus
Protein RecA = target: T3, Protein RecA (Mycobacterium tuberculosis, UniProt P9WHJ3); assay: Fluorescence Cell-Free Homogeneous Dose Retest to Identify Inhibitors of RecA-Intein Splicing Activity. [Related pubchem assays (depositor defined):AID2097, AID2223, AID489010, AID492950]; format: functional
T3 sequence (P9WHJ3 whole entry): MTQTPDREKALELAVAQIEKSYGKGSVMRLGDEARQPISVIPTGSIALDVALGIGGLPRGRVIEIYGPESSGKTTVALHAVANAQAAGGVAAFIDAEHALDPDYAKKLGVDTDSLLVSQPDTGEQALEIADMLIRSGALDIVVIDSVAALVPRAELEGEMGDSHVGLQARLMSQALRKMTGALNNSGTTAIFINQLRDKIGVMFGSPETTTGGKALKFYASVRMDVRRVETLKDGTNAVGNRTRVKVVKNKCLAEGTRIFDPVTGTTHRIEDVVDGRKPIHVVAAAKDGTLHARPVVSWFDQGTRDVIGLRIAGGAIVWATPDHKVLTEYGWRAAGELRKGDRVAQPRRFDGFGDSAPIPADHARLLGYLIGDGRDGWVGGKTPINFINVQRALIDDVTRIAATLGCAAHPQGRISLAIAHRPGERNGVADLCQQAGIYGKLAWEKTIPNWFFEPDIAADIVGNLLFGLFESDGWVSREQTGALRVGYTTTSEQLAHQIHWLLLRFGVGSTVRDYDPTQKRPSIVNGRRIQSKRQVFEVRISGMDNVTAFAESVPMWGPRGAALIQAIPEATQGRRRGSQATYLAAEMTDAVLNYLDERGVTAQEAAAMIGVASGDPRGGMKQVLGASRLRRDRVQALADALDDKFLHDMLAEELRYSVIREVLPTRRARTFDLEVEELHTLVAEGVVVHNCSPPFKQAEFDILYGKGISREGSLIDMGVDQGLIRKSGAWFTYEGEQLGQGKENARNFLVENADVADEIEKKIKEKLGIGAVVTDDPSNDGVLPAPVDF

[5] = target: T4, RNA-editing ligase 1, mitochondrial (Trypanosoma brucei brucei, UniProt P86926); assay: TbREL1 ligase inhibitors, dose response, biochemical, fluorescence, Trypanosoma brucei (AID 1117295); format: functional
T4 sequence (P86926 whole entry): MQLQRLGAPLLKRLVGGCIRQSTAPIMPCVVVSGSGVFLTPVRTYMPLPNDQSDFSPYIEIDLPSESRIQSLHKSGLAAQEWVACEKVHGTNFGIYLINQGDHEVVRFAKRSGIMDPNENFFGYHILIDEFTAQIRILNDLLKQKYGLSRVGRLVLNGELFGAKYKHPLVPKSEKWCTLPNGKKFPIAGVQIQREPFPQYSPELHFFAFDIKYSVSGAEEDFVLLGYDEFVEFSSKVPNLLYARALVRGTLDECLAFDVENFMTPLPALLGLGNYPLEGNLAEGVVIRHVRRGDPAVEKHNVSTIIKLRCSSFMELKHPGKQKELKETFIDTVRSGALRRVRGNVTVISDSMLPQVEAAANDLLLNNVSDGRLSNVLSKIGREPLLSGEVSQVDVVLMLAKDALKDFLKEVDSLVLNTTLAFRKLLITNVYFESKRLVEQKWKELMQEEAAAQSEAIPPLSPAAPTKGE

[6] = Luminescence Cell-Based Dose Retest to Confirm Inhibitors of Cancer Stem Cells. [Related pubchem assays (depositor defined):AID2717, AID2721]; format: functional; conditions: Homo sapiens
[7] = target: Glucose-6-phosphate 1-dehydrogenase (Homo sapiens, UniProt P11413); assay: human G6PD enzyme inhibitors, dose response, selectivity assay for P. falciparum G6PD inhibitor project, biochemical, fluorescence (AID 504792); format: functional
Glucose-6-phosphate 1-dehydrogenase, sequence (P11413 whole entry): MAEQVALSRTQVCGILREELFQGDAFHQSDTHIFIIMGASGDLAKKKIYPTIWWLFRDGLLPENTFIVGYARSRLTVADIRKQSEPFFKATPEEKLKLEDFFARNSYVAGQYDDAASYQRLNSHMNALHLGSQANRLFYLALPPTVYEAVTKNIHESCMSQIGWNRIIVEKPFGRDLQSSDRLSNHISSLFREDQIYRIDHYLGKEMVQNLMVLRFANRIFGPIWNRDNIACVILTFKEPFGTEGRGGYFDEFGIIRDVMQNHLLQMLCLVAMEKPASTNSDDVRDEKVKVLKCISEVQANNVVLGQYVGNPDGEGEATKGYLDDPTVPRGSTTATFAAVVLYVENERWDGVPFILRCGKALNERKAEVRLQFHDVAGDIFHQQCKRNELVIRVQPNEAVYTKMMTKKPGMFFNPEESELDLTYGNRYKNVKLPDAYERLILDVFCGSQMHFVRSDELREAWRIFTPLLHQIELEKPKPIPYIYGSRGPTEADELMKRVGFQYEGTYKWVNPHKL

Caspase-6 = target: T5, Caspase-6 (Homo sapiens, UniProt P55212); assay: human caspase-6 inhibitors, dose response, biochemical, VEID-R110 fluorescence, cherry-pick (AID 720632)
T5 sequence (P55212 whole entry): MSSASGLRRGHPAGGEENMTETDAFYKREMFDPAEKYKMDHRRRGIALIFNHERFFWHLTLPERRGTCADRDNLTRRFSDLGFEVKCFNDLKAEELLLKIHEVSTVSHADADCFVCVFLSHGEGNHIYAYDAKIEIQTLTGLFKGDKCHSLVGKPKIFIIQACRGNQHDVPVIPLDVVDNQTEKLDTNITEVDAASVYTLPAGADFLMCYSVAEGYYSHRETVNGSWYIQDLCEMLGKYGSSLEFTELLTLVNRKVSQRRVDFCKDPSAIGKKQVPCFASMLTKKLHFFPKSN

Caspase-9 = target: T6, Caspase-9 (Homo sapiens, UniProt P55211); assay: caspase-9 enzyme inhibition, dose response, selectivity assay for caspase-6 inhibitor project, biochemical, fluorescence, plate reader, cherry-picked samples (AID 743293)
T6 sequence (P55211 whole entry): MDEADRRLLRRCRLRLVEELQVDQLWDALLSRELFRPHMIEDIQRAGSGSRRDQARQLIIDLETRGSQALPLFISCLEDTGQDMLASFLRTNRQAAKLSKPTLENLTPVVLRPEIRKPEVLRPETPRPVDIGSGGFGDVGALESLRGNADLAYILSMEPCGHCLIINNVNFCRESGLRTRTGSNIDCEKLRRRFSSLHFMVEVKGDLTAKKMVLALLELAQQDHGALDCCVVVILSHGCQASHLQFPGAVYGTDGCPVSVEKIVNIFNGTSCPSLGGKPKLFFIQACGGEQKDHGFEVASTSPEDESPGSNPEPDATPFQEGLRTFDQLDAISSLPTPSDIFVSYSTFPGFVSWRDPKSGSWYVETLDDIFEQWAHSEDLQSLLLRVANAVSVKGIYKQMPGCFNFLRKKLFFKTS

Large T antigen = Large T antigen (Simian virus 40, UniProt P03070); format: functional, Betapolyomavirus macacae;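 note: Confirmatory-stage PubChem screen for compounds that inhibit SV40 T antigen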
Large T antigen, sequence (P03070 whole entry): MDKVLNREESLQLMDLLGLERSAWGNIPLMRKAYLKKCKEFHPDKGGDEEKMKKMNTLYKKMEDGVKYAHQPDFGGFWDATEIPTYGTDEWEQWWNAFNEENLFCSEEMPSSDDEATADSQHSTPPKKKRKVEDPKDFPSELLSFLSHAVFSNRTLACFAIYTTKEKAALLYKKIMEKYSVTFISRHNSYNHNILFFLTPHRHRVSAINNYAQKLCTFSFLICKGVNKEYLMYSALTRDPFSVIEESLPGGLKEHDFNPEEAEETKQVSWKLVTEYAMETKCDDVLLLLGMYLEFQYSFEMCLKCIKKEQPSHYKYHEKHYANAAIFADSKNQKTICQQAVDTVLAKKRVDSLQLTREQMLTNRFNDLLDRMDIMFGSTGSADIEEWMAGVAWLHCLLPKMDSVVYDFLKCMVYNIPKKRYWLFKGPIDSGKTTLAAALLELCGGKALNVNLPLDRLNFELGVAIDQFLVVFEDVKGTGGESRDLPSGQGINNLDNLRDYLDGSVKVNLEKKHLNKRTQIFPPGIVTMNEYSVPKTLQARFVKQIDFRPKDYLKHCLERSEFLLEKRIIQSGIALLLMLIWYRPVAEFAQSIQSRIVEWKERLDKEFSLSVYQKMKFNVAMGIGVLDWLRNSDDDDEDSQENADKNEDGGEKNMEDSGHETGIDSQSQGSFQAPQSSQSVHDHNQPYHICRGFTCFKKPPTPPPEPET

Caspase-7 = target: T7, Caspase-7 (Homo sapiens, UniProt P55210); assay: human caspase-7 inhibitors, dose response, selectivity assay for caspase-6 inhibitor project, biochemical, DEVD-R110 fluorescence, cherry-pick (AID 743295)
T7 sequence (P55210 whole entry): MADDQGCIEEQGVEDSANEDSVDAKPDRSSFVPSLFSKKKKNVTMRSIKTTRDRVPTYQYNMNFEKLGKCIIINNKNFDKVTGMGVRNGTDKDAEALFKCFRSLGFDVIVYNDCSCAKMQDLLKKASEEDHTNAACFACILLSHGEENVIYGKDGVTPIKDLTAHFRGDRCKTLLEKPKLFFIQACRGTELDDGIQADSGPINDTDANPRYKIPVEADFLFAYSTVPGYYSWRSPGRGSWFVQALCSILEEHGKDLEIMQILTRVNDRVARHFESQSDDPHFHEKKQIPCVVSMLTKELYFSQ

[8] = cytotoxicity in HEK-293T cells, dose response, cytotoxicity control for TCR NF-kB inhibitor project, luminescence, T-cell screen hits (AID 489026); format: functional, cell-based;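 note: cells exposed to compound about 14 hours before the viability readout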
[9] = non-specific cell cytotoxicity, dose response, cytotoxicity control for PAX8 inhibitor project, plate reader, dry powder samples (AID 743021); format: functional, cell-based
[10] = cytotoxicity toward DRD oncogenic fibroblasts, dose response, cell-based, non-viral oncogenic, luminescence (AID 1934); format: functional; conditions: Homo sapiens
Vero [11] = assay: cells; format: functional; conditions: Chlorocebus sabaeus
BJ [12] = assay: cytotoxicity toward Ras-transformed BJeLR fibroblasts, dose response, cell-based, alamar blue fluorescence, cherrypicked samples (AID 2631); format: functional; conditions: Homo sapiens;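 note: confirmatory dose-response assay in RAS-dependent BJ fibroblasts engineered with TERT, LT and ST, with cytotoxicity read by fluorescence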
Paired box protein Pax-8 = Paired box protein Pax-8 (Homo sapiens, UniProt Q06710); assay: inhibitors of PAX8-driven TPO luciferase reporter, dose response, RMG-I cells, cherry-pick (AID 687027); format: functional, cell-based;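 note: luciferase reporter driven by Pax8 target thyroperoxidase promoter measured by SteadyGlo luminescence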
Paired box protein Pax-8, sequence (Q06710 whole entry): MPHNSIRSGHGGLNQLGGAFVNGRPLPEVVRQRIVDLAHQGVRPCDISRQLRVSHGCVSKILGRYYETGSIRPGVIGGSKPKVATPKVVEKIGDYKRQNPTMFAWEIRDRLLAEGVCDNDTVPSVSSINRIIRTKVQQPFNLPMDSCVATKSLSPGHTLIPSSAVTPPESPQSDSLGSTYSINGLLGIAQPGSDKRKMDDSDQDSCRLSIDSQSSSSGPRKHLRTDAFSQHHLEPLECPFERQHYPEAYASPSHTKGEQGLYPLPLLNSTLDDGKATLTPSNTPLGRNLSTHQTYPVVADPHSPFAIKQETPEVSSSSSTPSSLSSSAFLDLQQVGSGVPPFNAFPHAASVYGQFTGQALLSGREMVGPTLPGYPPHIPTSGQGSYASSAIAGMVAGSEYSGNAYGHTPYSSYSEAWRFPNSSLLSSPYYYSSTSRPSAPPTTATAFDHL

[13] = Luminescence-based counterscreen assay for KLF5 inhibitors: dose response cell-based high throughput screening assay to identify cytotoxic compounds using the IEC-6 intestinal epithelial cell line. [Related pubchem assays: 1700 (Primary screen.), 1834 (Confirmation screen.), 1858 (Summary AID.), 1905 (Counterscreen.)]; format: functional
BJ [14] = assay: cells; format: functional, cell-based; conditions: Homo sapiens
BJ [15] = assay: cytotoxicity toward BJ-TERT-LT-ST fibroblasts, dose response, cell-based, RAS-independent, luminescence (AID 1935); format: functional; conditions: Homo sapiens;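 note: BJ fibroblasts immortalized with TERT plus LT and ST oncogenes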
BJ [16] = assay: cytotoxicity toward BJ-TERT fibroblasts, dose response, cell-based, RAS-independent, luminescence (AID 1933); format: functional; conditions: Homo sapiens

Cytochrome P450 3A4, sequence (P08684 whole entry): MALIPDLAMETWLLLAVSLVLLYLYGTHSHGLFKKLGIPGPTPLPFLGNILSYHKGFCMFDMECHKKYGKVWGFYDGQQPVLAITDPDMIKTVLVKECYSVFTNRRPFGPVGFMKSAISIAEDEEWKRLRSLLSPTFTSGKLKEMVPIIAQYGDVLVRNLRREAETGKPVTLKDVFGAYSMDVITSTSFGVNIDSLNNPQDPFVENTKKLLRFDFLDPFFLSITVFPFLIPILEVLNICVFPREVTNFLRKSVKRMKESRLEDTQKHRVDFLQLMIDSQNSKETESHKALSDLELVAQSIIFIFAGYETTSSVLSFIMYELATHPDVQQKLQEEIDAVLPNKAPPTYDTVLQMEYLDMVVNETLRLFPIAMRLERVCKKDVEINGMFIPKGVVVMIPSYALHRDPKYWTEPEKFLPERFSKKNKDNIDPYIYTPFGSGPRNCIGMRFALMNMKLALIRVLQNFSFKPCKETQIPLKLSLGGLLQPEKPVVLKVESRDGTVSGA

## COC(=O)C(Cc1c[nH]c2ccccc12)NC(=O)C(C)C (stereo unspecified)
Cytochrome P450 3A4
  AC50: 31.6 µM (inconclusive)
Cytochrome P450 2C19
  AC50: 22.4 µM (inconclusive)
[1]
  IC50: > 100 µM (active)

## CC(C)(C)C(=O)NC(=C(Cl)Cl)P(=O)(O)O
Cytochrome P450 1A2
  AC50: 0.1 µM (inconclusive)
[2]
  IC50: 9.26 µM (active)

## C[C@@H]1CC=C[C@H]2[C@H]1C(=O)N(Cc1ccccc1)[C@H]2c1ccc(F)c(Br)c1
[3]
  AC50: 5.04 µM (active)
Vero [4]
  CC50: 24.1 µM (active)
Protein RecA
  EC50: 23 µM (active)

## CCC(=O)c1ccccc1OCCCN1CCC(Cc2ccccc2)CC1
[5]
  IC50: > 96.6 µM (inactive)

## O=C1CCCCC1Oc1ccc2ccc(=O)oc2c1 (stereo unspecified)
[1]
  IC50: > 100 µM (active)

## COc1ccc2nc(C)cc(SCC(=O)N/N=C/c3cccc4ccccc34)c2c1
[6]
  AC50: 1.11 µM (active)
[2]
  IC50: 2.57 µM (active)

## Nc1c(O)cccc1C(=O)O
[7]
  IC50: 24 µM (inactive)
Caspase-6
  AC50: 1.59 µM (active)
[3]
  AC50: > 380 µM (inactive)
Caspase-9
  AC50: > 70 µM (inactive)
Protein RecA
  EC50: 5.43 µM (active)
Large T antigen
  IC50: 20.1 µM (active)
Caspase-7
  AC50: 6.14 µM (active)

## C[C@]12CCC3C(CCC4=CC(O)CC[C@@]43/C=N/O)C1(O)CCC2C1=CC(=O)OC1 (stereo partly specified)
[8]
  IC50: > 80 µM (inactive)
[9]
  AC50: 50.2 µM (active)
[10]
  EC50: 2.33 µM (active)
Vero [11]
  CC50: 1.34 µM (active)
BJ [12]
  EC50: 0.391 µM (active)
Paired box protein Pax-8
  AC50: 2.22 µM (active)
[13]
  IC50: > 39.8 µM (not active)
BJ [14]
  EC50: 2.56 µM (active)
BJ [15]
  EC50: 2.36 µM (inconclusive)
Vero [4]
  CC50: 0.79 µM (active)
BJ [16]
  EC50: 1.9 µM (active)

## O=C(CSc1nnc(-c2cccnc2)n1Cc1ccco1)c1ccc(Br)cc1
[1]
  IC50: > 100 µM (active)
